Reference: publication PMC7397269, “Synthesis and Evaluation of New Coumarin Derivatives as Antioxidant, Antimicrobial, and Anti-Inflammatory Agents” (Molecules, 2020)
Values after ≈ are worked out from the molar mass of the structure shown. Values joined by “and” are separate entries in the source; they are usually repeats but may differ in a detail not shown here. Equal values may be shown once. Read-outs that look alike come from different tables or passages of the source.

What was measured:
[1] = molecular target: T1, COX-1 (Homo sapiens, UniProt P23219); test: COX-1 inhibition, Cayman assay kit; type: biochemical; details: mean of two determinations
T1 construct: purchased Cayman Chemical 701070
T1 sequence (P23219 24-599): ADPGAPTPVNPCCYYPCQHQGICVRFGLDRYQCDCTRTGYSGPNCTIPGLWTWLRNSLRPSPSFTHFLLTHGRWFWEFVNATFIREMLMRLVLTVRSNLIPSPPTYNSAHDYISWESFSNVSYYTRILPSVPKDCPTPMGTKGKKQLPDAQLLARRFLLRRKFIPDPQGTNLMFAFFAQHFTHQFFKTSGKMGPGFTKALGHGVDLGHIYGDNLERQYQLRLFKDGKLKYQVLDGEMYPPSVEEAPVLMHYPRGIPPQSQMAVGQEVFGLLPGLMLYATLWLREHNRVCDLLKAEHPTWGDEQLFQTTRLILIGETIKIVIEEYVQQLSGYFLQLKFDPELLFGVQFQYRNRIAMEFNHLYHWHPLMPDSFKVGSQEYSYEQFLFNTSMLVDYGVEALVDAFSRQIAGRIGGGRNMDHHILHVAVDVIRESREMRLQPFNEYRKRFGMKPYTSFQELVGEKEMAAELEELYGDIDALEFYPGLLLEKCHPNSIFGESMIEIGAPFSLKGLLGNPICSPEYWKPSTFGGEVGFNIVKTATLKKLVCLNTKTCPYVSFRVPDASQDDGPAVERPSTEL

[2] = system: Pseudomonas aeruginosa ATCC 27,953; test: Agar well diffusion, P. aeruginosa; type: cell-based; details: ATCC27, 100 μL of 10 mg/mL in DMSO, read-out: diameter of inhibition zone, PA
How it was run: (§1)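 Values are mean inhibition zone diameters (mm) from triplicate plates incubated 24 h at 37 °C. Wells 10 mm wide held 100 μL of compound at 10 mg/mL in DMSO.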

[3] = DPPH antioxidant assay (radical scavenging); type: biochemical; details: mean ± SD (n = 3)
How it was run: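 Compounds, starting at 200 μg/mL, were mixed with 0.2 mM methanolic DPPH and incubated 30 min in the dark at 25 °C; absorbance was read at 515 nm. % inhibition is background-corrected against DPPH-only control, with IC50 from curve fit. Runs were triplicate (mean ± SD), with ascorbic acid as positive control.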

[4] = system: formaldehyde-induced rat paw oedema; test: Formaldehyde-induced rat paw oedema (prophylactic); type: in vivo; details: for paw volume reduced compared to positive control: 25 mg/kg orally
[5] = system: Staphylococcus aureus ATCC 29213; test: Agar well diffusion, S. aureus; type: cell-based; details: ATCC29213, 100 μL of 10 mg/mL in DMSO, read-out: diameter of inhibition zone, SA
How it was run: as §1

[6] = system: Bacillus subtilis ATCC 6633; test: MIC, two-fold serial dilution, B. subtilis; type: cell-based; details: ATCC6633, read-out: Minimum inhibitory concentration, BS
Source text: (§2) The new molecules were individually tested for their antimicrobial activity in vitro against standard bacteria strains from the American Type Culture Collection (ATCC), namely, Staphylococcus aureus ATCC 29213, Bacillus subtilis ATCC 6633, Bacillus megaterium ATCC 9885 (Gram-positive), Escherichia coli ATCC 2592, and Pseudomonas aeruginosa ATCC 27,953 (Gram-negative). The compounds were also microbiologically tested against locally isolated Saccharomyces cerevisiae (yeast) and the standard Agricultural Research Service Culture Collection (NRRL) strain of the yeast-like pathogenic fungus Candida albicans NRRL Y-477. Primary screening was conducted using the agar well diffusion method using nutrient agar (NA) medium and Sabourand dextrose agar (SDA) medium for the tested pathological bacteria and yeast, respectively. […].
(§3) The bacteriostatic activity of the active compounds (having IZ > 16 mm) was then evaluated using the two-fold serial dilution technique. Two-fold serial dilutions of the tested compounds solutions were prepared using the proper nutrient broth to reach final concentrations of 1000, 500, 250, and 125 μg/mL. The tubes were then inoculated with the test microorganisms grown in their suitable broth at 37 °C for 24 h (1 × 10^8 CFU/mL for bacteria and 1 × 10^6 CFU/mL of yeast), 0.1 mL of the above inoculum was administered per 5 mL, and the tubes were incubated at 37 °C for 24 h. The lowest concentration showing no growth was taken as the MIC.

[7] = system: Bacillus subtilis ATCC 6633; test: Agar well diffusion, B. subtilis; type: cell-based; details: ATCC6633, 100 μL of 10 mg/mL in DMSO, read-out: diameter of inhibition zone, BS
How it was run: as §1

[8] = system: Escherichia coli ATCC 2592; test: Agar well diffusion, E. coli; type: cell-based; details: ATCC2592, 100 μL of 10 mg/mL in DMSO, read-out: diameter of inhibition zone, EC
How it was run: as §1

[9] = molecular target: T2, COX-2 (Homo sapiens, UniProt P35354); test: COX-2 inhibition, Cayman assay kit; type: biochemical; details: for IC50: mean of two determinations; for SI, selectivity index (COX-1/COX-2): ratio of COX-1/COX-2 IC50
T2 construct: purchased Cayman Chemical 701080
T2 sequence (P35354 18-604): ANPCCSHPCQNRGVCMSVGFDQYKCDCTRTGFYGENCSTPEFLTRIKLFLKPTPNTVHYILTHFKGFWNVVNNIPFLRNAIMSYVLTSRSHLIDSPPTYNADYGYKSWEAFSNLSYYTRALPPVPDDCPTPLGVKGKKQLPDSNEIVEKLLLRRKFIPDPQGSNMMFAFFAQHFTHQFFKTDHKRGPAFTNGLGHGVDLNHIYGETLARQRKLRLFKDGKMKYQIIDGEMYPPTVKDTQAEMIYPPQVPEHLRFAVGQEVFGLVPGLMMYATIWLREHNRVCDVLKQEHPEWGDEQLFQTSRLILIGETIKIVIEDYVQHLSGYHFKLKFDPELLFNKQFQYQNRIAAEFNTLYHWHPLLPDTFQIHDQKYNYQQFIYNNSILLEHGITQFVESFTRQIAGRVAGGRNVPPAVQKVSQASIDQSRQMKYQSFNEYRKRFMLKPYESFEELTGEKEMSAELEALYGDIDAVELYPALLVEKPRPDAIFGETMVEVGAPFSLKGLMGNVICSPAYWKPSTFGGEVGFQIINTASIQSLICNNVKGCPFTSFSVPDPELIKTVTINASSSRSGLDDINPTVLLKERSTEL

[10] = system: Candida albicans NRRL Y-477; test: Agar well diffusion, C. albicans; type: cell-based; details: NRRLY477, 100 μL of 10 mg/mL in DMSO, read-out: diameter of inhibition zone, CA
How it was run: as §1

[11] = system: Bacillus megaterium ATCC 9885; test: Agar well diffusion, B. megaterium; type: cell-based; details: Priestia megaterium, ATCC9885, 100 μL of 10 mg/mL in DMSO, read-out: diameter of inhibition zone, BM
How it was run: as §1

[12] = system: trypsin; test: Proteinase-inhibitory activity; type: biochemical; details: 250 µg/mL; mean ± SD (n = 3)
How it was run: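 Trypsin (0.06 mg per 2 mL, 20 mM Tris-HCl pH 7.4) was preincubated 5 min with test sample at 250 µg/mL, then 0.8% casein was added for 20 min. Perchloric acid stopped the reaction and supernatant absorbance was read at 280 nm. % inhibition is relative to the no-sample control, in triplicate.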

[13] = system: Saccharomyces cerevisiae local isolate; test: Agar well diffusion, S. cerevisiae; type: cell-based; details: read-out: diameter of inhibition zone, SC
How it was run: as §1

[14] = system: Candida albicans NRRL Y-477; test: MIC, two-fold serial dilution, C. albicans; type: cell-based; details: NRRLY477, read-out: Minimum inhibitory concentration, CA
How it was run: (§4)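 Compounds with agar-well inhibition zones >16 mm were retested by two-fold broth dilution at final concentrations of 1000, 500, 250 and 125 μg/mL. Inocula of 1 × 10^8 CFU/mL (bacteria) or 1 × 10^6 CFU/mL (yeast), 0.1 mL per 5 mL. MIC = lowest concentration without growth after 24 h at 37 °C.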

[15] = system: Saccharomyces cerevisiae local isolate; test: MIC, two-fold serial dilution, S. cerevisiae; type: cell-based; details: read-out: Minimum inhibitory concentration, SC
How it was run: as §4

[16] = system: Staphylococcus aureus ATCC 29213; test: MIC, two-fold serial dilution, S. aureus; type: cell-based; details: ATCC29213, read-out: Minimum inhibitory concentration, SA
Source text: as §2, §3

[17] = system: Pseudomonas aeruginosa ATCC 27,953; test: MIC, two-fold serial dilution, P. aeruginosa; type: cell-based; details: ATCC27, read-out: Minimum inhibitory concentration, PA
Source text: as §2, §3

[18] = system: Escherichia coli ATCC 2592; test: MIC, two-fold serial dilution, E. coli; type: cell-based; details: ATCC2592, read-out: Minimum inhibitory concentration, EC
Source text: as §2, §3

[19] = system: tested microorganisms; test: MIC, summary over the tested microorganisms; type: cell-based; details: two-fold serial dilution; read-out: MIC against most tested microorganisms
Source text: as §2, §3

[20] = system: Bacillus megaterium ATCC 9885; test: MIC, two-fold serial dilution, B. megaterium; type: cell-based; details: Priestia megaterium, ATCC9885, read-out: Minimum inhibitory concentration, BM
Source text: as §2, §3

[21] = system: tested microorganisms; test: Agar well diffusion, summary over the tested microorganisms; type: cell-based; details: all tested microorganisms
Source text: as §2
Antimicrobial tests were conducted via the agar well diffusion method using 100 μL of suspension containing 1 × 10^8 CFU/mL pathological tested bacteria and 1 × 10^6 CFU/mL yeast spread on NA and SDA, respectively. […] After incubation, antimicrobial activity was evaluated by measuring the zone of inhibition against the test organisms and compared with that of the standard. Antimicrobial activities were expressed as the diameter of the inhibition zone (IZ) in mm. The experiment was carried out in triplicate and the average zone of inhibition was calculated.

Row | SMILES | IC50 [1] | zone of inhibition at 10000 µg/mL [2] | IC50 [3] | zone of inhibition at 10000 µg/mL [5] | MIC [6] | zone of inhibition at 10000 µg/mL [7] | zone of inhibition at 10000 µg/mL [8] | IC50 [9] | SI, selectivity index (COX-1/COX-2) [9] | melting point | zone of inhibition at 10000 µg/mL [10] | zone of inhibition at 10000 µg/mL [11] | % Inhibition (proteinase) [12] | zone of inhibition at 10000 µg/mL [13] | further results
1 | Cc1ccc2oc(=O)c3c(c2c1)OC(N)=C(C(N)=O)C3c1ccc([N+](=O)[O-])cc1 (racemic) [3a, (±)-2-Amino-9-methyl-4-(4-nitrophenyl)-5-oxo-4H,5H-pyrano[3,2-c]chromene-3-carboxamide] | 183 µM | 15 mm | — ((—): inactive (IC50 > 200 μg/mL)) | < 15 mm | 1000 µg/mL (≈ 2540 µM) | 18 mm | 16 mm | 9.81 µM | 18.68 | 142 to 144 °C | < 15 mm | 16 mm | 79.72 ± 4.51% | < 15 mm | % inhibition of paw oedema ([4]; 2.5 mg/kg orally, 1 h after inducing inflammation): 29.2%
2 | Cc1ccc2oc(=O)c3c(c2c1)OC(/N=C/c1ccccc1)=C(C#N)C3c1ccc([N+](=O)[O-])cc1 (racemic) [5a, (±)-2-(benzylideneamino)-9-methyl-4-(4-nitrophenyl)-5-oxo-4H,5H-pyrano[3,2-c]chromene-3-carbonitrile] | 1130 µM | 24 mm | — ((—): inactive (IC50 > 200 μg/mL)) | 25 mm | 250 µg/mL (≈ 539 µM) | 27 mm | 26 mm | 7.41 µM | 152 and 152.02 | 208 to 209 °C | 25 mm | 22 mm | – | 26 mm | MIC [14]: 500 µg/mL (≈ 1080 µM); MIC [15]: 500 µg/mL (≈ 1080 µM); MIC [16]: 250 µg/mL (≈ 539 µM); MIC [17]: 500 µg/mL (≈ 1080 µM); MIC [18]: 250 µg/mL (≈ 539 µM); MIC [19]: 250 to 500 µg/mL (≈ 539 to 1080 µM); MIC [20]: 500 µg/mL (≈ 1080 µM)
3 | Cc1ccc2oc(=O)c(S(=O)(=O)Nc3ccc(S(N)(=O)=O)cc3)c(O)c2c1 [7b, 4-Hydroxy-6-methyl-2-oxo-N-(4-sulfamoylphenyl)-2H-chromene-3-sulfonamide] | 47.6 µM | < 15 mm | 61.78 ± 2.719 µg/mL (≈ 151 µM) | < 15 mm | – | < 15 mm | < 15 mm | 8.24 µM | 5.78 | 241 to 243 °C | < 15 mm | < 15 mm | 5.93 ± 2.11% | – | IZ against the tested microorganisms [21]: < 15 mm; zone of inhibition at 10000 µg/mL ([13]; well diffusion, 100 μL of 10 mg/mL in DMSO, S. cerevisiae): < 15 mm
4 | COc1ccc2c(c1)c(CC(=O)O)c(C)n2C(=O)c1ccc(Cl)cc1 [Indomethacin, reference compound] | – | – | – | – | – | – | – | – | – | – | – | – | – | – | paw volume reduced compared to positive control ([4]; 1 h after formaldehyde): 72.09%; paw volume reduced compared to positive control ([4]; 2 h after formaldehyde): 74.79%; paw volume reduced compared to positive control ([4]; 3 h after formaldehyde): 71.5%
